Assay results: PMC12169608, “Peptidomimetic Phenoxymethyl Ketone Warheads as Potent Dual-Mode Inhibitors against SARS-CoV‑2 M^pro and Cathepsin” (Journal of Medicinal Chemistry, 2025)
In brackets after ≈: the same amount, converted by molar mass. Where two headings read alike, the source gives them in different places.

Assays:
[1] = 3 h, 2 µM
[2] = biological target: T1, human cathepsin L (hCTSL) (Homo sapiens, UniProt P07711); assay: hCTSL biochemical assay
T1 construct: purchased R&D Systems

[3] = physchem; details: pH 7.4
[4] = Hamster liver microsomal stability; details: microsomes, pH 7.4
[5] = in vitro; details: African green monkey
[6] = in vitro; details: human, microsomes, pH 7.4
[7] = Human liver microsomal stability; details: microsomes, pH 7.4
[8] = biological target: hamster CTSL (Mesocricetus auratus, UniProt Q812A7); assay: hamster CTSL biochemical assay
hamster CTSL, sequence (Q812A7 entry or part of it): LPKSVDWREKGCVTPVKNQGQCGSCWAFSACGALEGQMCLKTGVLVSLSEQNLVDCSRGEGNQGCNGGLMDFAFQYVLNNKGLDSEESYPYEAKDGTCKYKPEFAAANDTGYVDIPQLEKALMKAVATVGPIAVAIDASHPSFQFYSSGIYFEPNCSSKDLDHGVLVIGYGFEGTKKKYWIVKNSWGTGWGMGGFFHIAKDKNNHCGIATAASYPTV

[9] = Hamster hepatocyte stability; details: cryopreserved hepatocytes; for half-life at 2 h, 2 µM: t1/2 (hamster hepatocytes), without ritonavir
[10] = in vitro; details: hamster, microsomes, pH 7.4
[11] = in vitro; details: mouse, plasma, mouse plasma protein binding
[12] = biological target: T2, Calpain-1 (Homo sapiens, UniProt P07384); assay: Protease panel: Calpain-1; format: biochemical
T2 construct: erythrocytes; tissue Eurofins Discovery (assay service); host or cells: human erythrocytes
T2 sequence (P07384 1-714): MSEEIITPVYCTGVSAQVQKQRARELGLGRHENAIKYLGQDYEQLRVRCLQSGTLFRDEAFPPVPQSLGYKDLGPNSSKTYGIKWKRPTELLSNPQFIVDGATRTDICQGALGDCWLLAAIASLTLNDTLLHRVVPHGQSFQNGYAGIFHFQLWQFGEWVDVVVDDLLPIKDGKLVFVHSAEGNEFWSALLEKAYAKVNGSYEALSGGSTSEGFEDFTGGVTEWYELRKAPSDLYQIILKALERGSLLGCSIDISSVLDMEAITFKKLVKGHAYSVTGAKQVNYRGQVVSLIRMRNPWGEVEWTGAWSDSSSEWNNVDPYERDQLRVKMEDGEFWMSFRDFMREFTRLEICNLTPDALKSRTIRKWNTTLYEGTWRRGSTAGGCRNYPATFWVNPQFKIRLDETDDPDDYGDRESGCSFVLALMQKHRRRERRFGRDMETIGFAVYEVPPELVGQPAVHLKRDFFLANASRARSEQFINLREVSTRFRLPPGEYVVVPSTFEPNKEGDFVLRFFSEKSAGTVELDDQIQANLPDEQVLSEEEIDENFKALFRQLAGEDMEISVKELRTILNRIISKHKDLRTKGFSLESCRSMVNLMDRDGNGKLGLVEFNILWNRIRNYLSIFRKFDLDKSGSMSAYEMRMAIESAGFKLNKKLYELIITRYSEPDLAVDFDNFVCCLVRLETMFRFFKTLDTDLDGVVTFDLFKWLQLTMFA
T2 sequence (P04632 1-268 partner): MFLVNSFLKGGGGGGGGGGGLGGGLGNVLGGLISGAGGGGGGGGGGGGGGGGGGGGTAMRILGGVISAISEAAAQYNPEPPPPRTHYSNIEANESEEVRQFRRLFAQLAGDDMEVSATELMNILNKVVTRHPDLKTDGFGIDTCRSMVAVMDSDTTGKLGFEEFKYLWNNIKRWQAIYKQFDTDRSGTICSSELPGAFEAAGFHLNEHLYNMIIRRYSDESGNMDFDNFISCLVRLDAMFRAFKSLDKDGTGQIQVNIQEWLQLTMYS

[13] = biological target: T3, thrombin (Homo sapiens, UniProt P00734); assay: Protease panel: thrombin; format: biochemical
T3 construct: preincubated with thrombin (10 nM, Sigma); purchased Sigma-Aldrich

[14] = hamster, in vivo, ip, 100 mg/kg
[15] = in vitro; details: mouse, hepatocytes; for hepatocyte CLint at 2 h, 2 µM: CLint (mouse hepatocytes)
[16] = physchem; details: pH 7.4; remark: listed apart in the source
[17] = tested on: trypsin; assay: Protease panel: trypsin
[18] = in vitro; details: human, hepatocytes
[19] = Human hepatocyte stability; details: cryopreserved hepatocytes
[20] = tested on: luciferase-expressing VSV (ΔG) pseudotyped with Spike from SARS-CoV-2; assay: microbe, parasite or virus in culture; format: cell-based; details: Vesicular stomatitis virus, Vero C1008, read-out: Entry reporter assay pEC50 (converted)
[21] = biological target: human cathepsin B (hCTSB) (Homo sapiens, UniProt P07858); assay: hCTSB biochemical assay
[22] = biological target: mouse cathepsin L (mCTSL) (Mus musculus, UniProt P06797); assay: mCTSL biochemical assay; details: read-out: pIC50 (mouse CTSL) (converted)
mouse cathepsin L (mCTSL), sequence (P06797 114-334): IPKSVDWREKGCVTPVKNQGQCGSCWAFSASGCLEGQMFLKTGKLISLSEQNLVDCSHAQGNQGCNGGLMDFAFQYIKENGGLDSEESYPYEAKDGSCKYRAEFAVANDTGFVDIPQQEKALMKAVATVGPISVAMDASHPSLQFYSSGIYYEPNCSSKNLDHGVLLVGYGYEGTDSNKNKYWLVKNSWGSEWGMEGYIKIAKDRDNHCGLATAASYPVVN

[23] = Mouse hepatocyte stability; details: mouse, cryopreserved hepatocytes
[24] = biological target: T4, Caspase 2 (Homo sapiens, UniProt P42575); assay: Protease panel: Caspase 2; format: biochemical
T4 construct: purchased Eurofins Discovery (assay service); host or cells: E. coli
T4 sequence (P42575 170-325 limits assumed): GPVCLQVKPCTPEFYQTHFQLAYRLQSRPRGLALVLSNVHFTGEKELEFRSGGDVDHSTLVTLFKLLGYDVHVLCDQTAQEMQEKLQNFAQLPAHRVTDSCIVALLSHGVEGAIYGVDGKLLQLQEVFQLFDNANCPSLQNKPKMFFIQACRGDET
T4 sequence (P42575 348-452 limits assumed): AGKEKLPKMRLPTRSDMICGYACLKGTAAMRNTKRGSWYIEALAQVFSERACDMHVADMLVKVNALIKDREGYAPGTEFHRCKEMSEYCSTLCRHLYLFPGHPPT

T1 sequence (P07711 114-333): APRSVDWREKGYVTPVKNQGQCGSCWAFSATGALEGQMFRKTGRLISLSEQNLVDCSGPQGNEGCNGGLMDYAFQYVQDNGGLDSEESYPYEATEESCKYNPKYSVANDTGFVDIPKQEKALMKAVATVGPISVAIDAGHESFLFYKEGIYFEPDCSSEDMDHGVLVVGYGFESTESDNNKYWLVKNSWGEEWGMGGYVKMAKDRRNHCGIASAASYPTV

With `COc1cccc2[nH]c(C(=O)N[C@@H](Cc3cccc(F)c3)C(=O)N[C@@H](C[C@@H]3CCNC3=O)C(=O)COc3c(F)c(F)c(CO)c(F)c3F)cc12` [compound 1, N-((S)-3-(3-Fluorophenyl)-1-oxo-1-(((S)-3-oxo-1-((S)-2-oxopyrrolidin-3-yl)-4-(2,3,5,6-tetrafluoro-4-(hydroxymethyl)phenoxy)butan-2-yl)amino)propan-2-yl)-4-methoxy-1H-indole-2-carboxamide] the “mouse plasma protein binding, fraction bound (Fb)” value [1] was 98.06%, the “hCTSL biochemical assay pIC50” value [2] was 7.54 and the logD at 1 h [3] was 1.65. For the same compound, the half-life at 1 µM [4] was 0.58 min, the CC50 [5] was > 1000 nM and the microsomal CLint [6] was 350 µL/min/mg. The remaining at 1 h [6] was 0%, the half-life [7] was 4.04 min and the “pIC50 (hamster CTSL)” value [8] was 8.34 ± 0.09. For the same compound, the half-life at 2 h, 2 µM [9] was 7.9 min, the microsomal CLint at 1 µM [10] was 2370 µL/min/mg and the remaining at 1 h, 1 µM [10] was 0%. For the same compound, the fraction unbound at 3 h, 2 µM ([11]; fraction bound (Fb)) was 0.0194, the fraction unbound at 3 h, 2 µM ([11]; fraction unbound (Fu)) was 0.0194 and the inhibition at 10 µM [12] was 3%. For the same compound, the inhibition at 10 µM [13] was 0.2 ± 1.1%, the “clinical signs upon intraperitoneal dosing” value [14] was “no clinical signs have been observed” and the hepatocyte CLint at 2 h, 2 µM [15] was 186 µL/min/1e6 cells. For the same compound, the solubility kinetic at 24 h [16] was 18 µM (≈ 12.6 µg/mL), the “Trypsin inhibition at 10 μM” value [17] was -3.4 ± 9.0% and the hepatocyte CLint at 2 h, 2 µM [18] was 12.5 µL/min/1e6 cells. The half-life at 2 h, 2 µM [19] was 55.5 min, the EC50 [20] was 2510 nM and the “hCTSB biochemical assay pIC50” value [21] was 6.36. It also gave an IC50 [22] of 83.2 nM, a half-life at 1 µM [23] of 9.3 min and an inhibition at 10 µM [24] of 11%.
With `CC(C)(O)c1c(F)c(F)c(OCC(=O)[C@H](C[C@@H]2CCNC2=O)NC(=O)[C@@H]2[C@@H]3[C@H](CN2C(=O)[C@@H](NC(=O)C(F)(F)F)C(C)(C)C)C3(C)C)c(F)c1F` [compound 14, (1R,2S,5S)-3-((S)-3,3-Dimethyl-2-(2,2,2-trifluoroacetamido)butanoyl)-6,6-dimethyl-N-((S)-3-oxo-1-((S)-2-oxopyrrolidin-3-yl)-4-(2,3,5,6-tetrafluoro-4-(2-hydroxypropan-2-yl)phenoxy)butan-2-yl)-3-azabicyclo[3.1.0]hexane-2-carboxamide] the “mouse plasma protein binding, fraction bound (Fb)” value [1] was 99.24%, the “hCTSL biochemical assay pIC50” value [2] was < 4.30 and the “hCTSL activity (in words)” value ([2]; biochemical assay) was “no hCTSL and hCTSB activity was observed”. The logD at 1 h [3] was 2.52, the half-life at 1 µM [4] was 1.73 min and the CC50 [5] was > 501 nM. It also gave a microsomal CLint [6] of 40 µL/min/mg, a remaining at 1 h [6] of 30.2% and a half-life [7] of 35 min. For the same compound, the “pIC50 (hamster CTSL)” value [8] was 4.67 ± 0.33, the half-life at 2 h, 2 µM [9] was 11.2 min and the half-life at 1 µM ([9]; with ritonavir 0.25 µM (compound/ritonavir 4:1), t1/2 (hamster hepatocytes + ritonavir 4:1), compound/ritonavir 4:1) was 15.5 min. For the same compound, the microsomal CLint at 1 µM [10] was 377 µL/min/mg, the remaining at 1 h, 1 µM [10] was 0.1% and the fraction unbound at 3 h, 2 µM ([11]; fraction bound (Fb)) was 0.0076. It also gave a fraction unbound at 3 h, 2 µM ([11]; fraction unbound (Fu)) of 0.0076, an inhibition at 10 µM [12] of -7% and an inhibition at 10 µM [13] of 4.1 ± 1.5%. The “clinical signs upon intraperitoneal dosing” value ([14]; female, Syrian golden) was “the animals were found dull and lethargic 15 min up until 45 min postdosing”, the hepatocyte CLint at 1 µM ([15]; CLint (mouse hepatocytes + ritonavir 4:1)) was 26.7 µL/min/1e6 cells and the hepatocyte CLint at 2 h, 2 µM [15] was 112 µL/min/1e6 cells. The solubility kinetic at 24 h [16] was 77.2 µM (≈ 57 µg/mL), the “Trypsin inhibition at 10 μM” value [17] was 10.2 ± 3.3% and the hepatocyte CLint at 2 h, 2 µM [18] was 6.6 µL/min/1e6 cells. For the same compound, the half-life at 2 h, 2 µM [19] was 105 min, the EC50 [20] was > 30200 nM and the “hCTSB biochemical assay pIC50” value [21] was < 4.30. For the same compound, the “hCTSB activity (in words)” value ([21]; biochemical assay) was “no hCTSL and hCTSB activity was observed”, the IC50 [22] was > 50100 nM and the half-life at 1 µM [23] was 15.5 min. The inhibition at 10 µM [24] was 7%.
